In patent US11932657B2, “Heterocyclic compound” (priority 2018, dated 2024):

How the values were obtained:
[1] = system: immortalized megakaryocyte line (SeV2-MKCL); assay: Platelet production: static culturing of immortalized megakaryocyte line; type: cell-based; conditions: compound final concentration 0.1 μM, static culturing 6 to 7 days, control (DMSO) set to 1; platelets = CD41, CD42b and CD42a-positive cells
Method in brief: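 SeV2-MKCL cells, washed free of doxycycline to stop forced expression, seeded at 1×10^5 cells/mL in IMDM-based medium with compound (final 0.1 μM) or DMSO, static culture 6–7 days, 37° C., 5% CO2. CD41/CD42a/CD42b-positive platelets counted by bead-corrected flow cytometry; platelets per megakaryocyte expressed as fold over DMSO control.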

[2] = biological target: T1, aryl hydrocarbon receptor (AhR) (Homo sapiens, UniProt P35869); assay: AhR reporter gene assay (aryl hydrocarbon receptor antagonist activity, DRE-Luc HepG2 cells, TCDD-stimulated luciferase); type: cell-based
T1 construct: DRE-Luc HepG2 cells subcultured in a 225 cm^2 flask; endogenous in cells; host or cells: HepG2 (ATCC), stably transfected with the reporter hCYP1A1/pGL4.27 (DRE-Luc HepG2)
T1 sequence (P35869 11-848): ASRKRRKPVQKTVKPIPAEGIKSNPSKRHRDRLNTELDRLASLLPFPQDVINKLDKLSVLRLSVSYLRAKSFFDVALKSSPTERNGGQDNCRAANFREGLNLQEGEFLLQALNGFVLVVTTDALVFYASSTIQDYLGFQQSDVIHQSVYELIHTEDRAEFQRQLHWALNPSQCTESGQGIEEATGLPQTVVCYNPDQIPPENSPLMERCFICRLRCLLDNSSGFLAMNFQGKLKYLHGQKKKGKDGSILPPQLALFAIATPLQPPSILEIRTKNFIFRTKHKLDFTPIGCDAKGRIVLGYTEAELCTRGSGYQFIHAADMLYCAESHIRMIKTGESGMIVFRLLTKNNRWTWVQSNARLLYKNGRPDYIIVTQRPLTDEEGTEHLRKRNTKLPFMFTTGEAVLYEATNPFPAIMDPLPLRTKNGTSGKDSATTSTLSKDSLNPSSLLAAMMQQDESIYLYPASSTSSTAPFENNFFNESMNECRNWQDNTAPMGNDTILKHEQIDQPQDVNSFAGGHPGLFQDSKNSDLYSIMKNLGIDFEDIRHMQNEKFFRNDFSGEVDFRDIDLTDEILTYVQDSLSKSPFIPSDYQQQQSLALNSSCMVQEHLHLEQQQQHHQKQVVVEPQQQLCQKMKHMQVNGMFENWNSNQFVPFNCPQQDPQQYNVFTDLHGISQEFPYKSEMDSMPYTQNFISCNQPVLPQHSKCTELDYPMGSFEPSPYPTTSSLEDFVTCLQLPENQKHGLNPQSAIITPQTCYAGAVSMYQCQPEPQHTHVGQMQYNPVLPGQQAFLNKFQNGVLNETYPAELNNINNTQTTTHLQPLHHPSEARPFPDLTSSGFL
Experimental: Test Example 1 (Aryl Hydrocarbon Receptor Antagonist Activity)
An expression vector, hCYP1A1/pGL4.27 was introduced into HepG2 cells (derived from American Type Culture Collection (ATCC)) that were seeded in 6-well plates (#3810-006 (Iwaki)) at 1.2×10^6 cells/well, using Lipofectamine 3000 (#100022050 (Invitrogen)). Referring to Garrion P M et al., Fundam Appl Toxicol, 30, 194 (1996), the vector hCYP1A1/pGL4.27 incorporated the human CYP1A1 promotor region including dioxin responsive element (DRE) region of the AhR binding region into the XhoI-BglII restriction enzyme site of pGL4.27 (#E8451 (Promega)). After 24 hours, medium-1 was replaced, and after 48 hours, the medium-1 containing hygromycin B (200 to 1000 μg/mL) was subjected to drug treatment. Culturing using the medium containing hygromycin B was continued for about 1 month to clone 24 clones showing drug resistance. A cell line showing high reporter activity was selected (DRE-Luc HepG2) from drug resistant lines using as an indicator luciferase activity (Dual-Glo Luciferase substrate, #E297A (Promega)) relative to an AhR agonist, 2,3,7,8-tetrachlorodibenzo-p-dioxin (TCDD) (#ED-901-B (CIL.)).
DRE-Luc HepG2 cells subcultured in a 225 cm^2 flask (#11-0005 (Iwaki)) were washed with PBS (#1419-144 (Gibco), Lot: 1896207), and thereto was added 8 mL of Trypsin-EDTA (0.05%) (#25300-054 (Gibco)). Thereafter, an excessive liquid was removed from the mixture, and the cells were stood at room temperature for 5 minutes. Thereto was added 10 mL of medium-2, the cells were recovered through a cell strainer (#352350 (Falcon), 70 μm), and the number of cells were then counted using a hemocytometer. A cell suspension was prepared at 3×10^5 cells/mL, 100 μL/well of the cell suspension was seeded into a 96-well white plate (#136101, F96 Microwell (Nunc)), and the cells were then cultured in a CO2 incubator (5% CO2, 37° C.). After 24 hours, the medium was aspirated, and thereto was added 100 μL of an assay medium solution including the compound of the present invention, and the cells were cultured in the CO2 incubator (5% CO2, 37° C.). After 24 hours, 11 μL of an assay medium solution including 5×10^−10 M TCDD (#ED-901-B (CIL.)) was added thereto and the cells were cultured in the CO2 incubator (5% CO2, 37° C.). After 24 hours, 50 μL of a reaction substrate (#E253B, Steady-Glo Luciferase substrate (Promega)) for Firefly Luciferase enzyme reaction was added to each well, and after 5 minute-shaking, the light emission intensity was measured with Wallac ARVO 1420sx (PerkinElmer).

## CC1(C)COc2nc3c(NCCc4ccc(O)c(-c5cncc(F)c5)c4)nc(-c4cncc(F)c4)nc3n21 [Example 43, 2-(5-fluoropyridin-3-yl)-4-[2-[[2-(5-fluoropyridin-3-yl)-8,8-dimethyl-7H-purino[8,9-b][1,3]oxazol-4-yl]amino]ethyl]phenol]
[1]
  Static (vs veh): fold increase of platelet production efficiency (PLT/MK): 7.1
[2]
  IC50: 26 nM

## CC1(C)COc2nc3c(NCCc4ccc(O)c(-c5c(F)cccc5F)c4)nc(-c4cncc(F)c4)nc3n21 [Example 44]
[1]
  Static (vs veh): fold increase of platelet production efficiency (PLT/MK): 3.4
[2]
  IC50: 3.5 nM

## CC1(C)COc2nc3c(NCCc4ccc(O)c(-c5c(F)cccc5F)c4)nc(-c4cncc(C#N)c4)nc3n21 [Example 45]
[1]
  Static (vs veh): fold increase of platelet production efficiency (PLT/MK): 2.4
[2]
  IC50: 11 nM

## CC1(C)COc2nc3c(NCCc4ccc(O)c(-c5ccccc5)c4)nc(-c4cncc(C#N)c4)nc3n21 [Example 46, 5-[4-[2-(4-hydroxy-3-phenylphenyl)ethylamino]-8,8-dimethyl-7H-purino[8,9-b][1,3]oxazol-2-yl]pyridine-3-carbonitrile]
[1]
  Static (vs veh): fold increase of platelet production efficiency (PLT/MK): 5.0
[2]
  IC50: 9.9 nM

## CC1(C)CSc2nc3c(NCCc4ccc(O)c(-c5ccccc5)c4)nc(-c4cncc(F)c4)nc3n21 [Example 47]
[1]
  Static (vs veh): fold increase of platelet production efficiency (PLT/MK): 3.7
[2]
  IC50: 0.38 nM

## CC1(C)CSc2nc3c(NCCc4ccc(O)c(-c5ccccc5)c4)nc(-c4cncc(C#N)c4)nc3n21 [Example 48]
[1]
  Static (vs veh): fold increase of platelet production efficiency (PLT/MK): 3.5
[2]
  IC50: 0.42 nM

## C[C@@H]1CSc2nc3c(NCCc4ccc(O)c(-c5ccccc5)c4)nc(-c4cncc(F)c4)nc3n21 [Example 49]
[1]
  Static (vs veh): fold increase of platelet production efficiency (PLT/MK): 5.5
[2]
  IC50: 0.36 nM

## C[C@@H]1CSc2nc3c(NCCc4ccc(O)c(-c5ccccc5)c4)nc(-c4cncc(C#N)c4)nc3n21 [Example 50]
[1]
  Static (vs veh): fold increase of platelet production efficiency (PLT/MK): 6.6
[2]
  IC50: 0.7 nM

## CC1(C)CSc2nc3c(NCCc4ccc(O)c(-c5ccccc5F)c4)nc(-c4ccc5nccn5c4)nc3n21 [Example 52]
[1]
  Static (vs veh): fold increase of platelet production efficiency (PLT/MK): 5.3
[2]
  IC50: 1.8 nM

## CC1(C)CSc2nc3c(NCCc4ccc(O)c(-c5cccc(F)c5)c4)nc(-c4ccc5nccn5c4)nc3n21 [Example 53]
[1]
  Static (vs veh): fold increase of platelet production efficiency (PLT/MK): 5.3
[2]
  IC50: 1.2 nM

## CC1(C)COc2nc3c(NCCc4ccc(O)c(-c5cc(C#N)ccc5F)c4)nc(-c4cncc(F)c4)nc3n21 [Example 54]
[1]
  Static (vs veh): fold increase of platelet production efficiency (PLT/MK): 5.9
[2]
  IC50: 4.1 nM

## CC1(C)COc2nc3c(NCCc4ccc(O)c(-c5cccc(C#N)c5F)c4)nc(-c4cncc(F)c4)nc3n21 [Example 55]
[1]
  Static (vs veh): fold increase of platelet production efficiency (PLT/MK): 6.8
[2]
  IC50: 1.2 nM

## CC1(C)COc2nc3c(NCCc4ccc(O)c(-c5cc(F)cc(C#N)c5)c4)nc(-c4cncc(F)c4)nc3n21 [Example 56]
[1]
  Static (vs veh): fold increase of platelet production efficiency (PLT/MK): 6.5
[2]
  IC50: 13 nM

## CC1(C)CSc2nc3c(NCCc4ccc(O)c(-c5cccc(C#N)c5)c4)nc(-c4cncc(F)c4)nc3n21 [Example 57]
[1]
  Static (vs veh): fold increase of platelet production efficiency (PLT/MK): 4.9
[2]
  IC50: 0.39 nM

## C[C@@H]1CSc2nc3c(NCCc4ccc(O)c(-c5cccc(C#N)c5)c4)nc(-c4cncc(F)c4)nc3n21 [Example 58]
[1]
  Static (vs veh): fold increase of platelet production efficiency (PLT/MK): 5.1
[2]
  IC50: 0.46 nM

## CC1(C)COc2nc3c(NCCc4ccc(O)c(-c5cccc(C#N)c5)c4)nc(-c4cncc(C#N)c4)nc3n21 [Example 59]
[1]
  Static (vs veh): fold increase of platelet production efficiency (PLT/MK): 5.7
[2]
  IC50: 2.5 nM

## CC1(C)CSc2nc3c(NCCc4ccc(O)c(-c5cccc(C#N)c5)c4)nc(-c4cncc(C#N)c4)nc3n21 [Example 60]
[1]
  Static (vs veh): fold increase of platelet production efficiency (PLT/MK): 3.4
[2]
  IC50: 0.43 nM

## C[C@@H]1CSc2nc3c(NCCc4ccc(O)c(-c5cccc(C#N)c5)c4)nc(-c4cncc(C#N)c4)nc3n21 [Example 61]
[1]
  Static (vs veh): fold increase of platelet production efficiency (PLT/MK): 3.9
[2]
  IC50: 0.71 nM

## CC1(C)COc2nc3c(NCCc4ccc(O)c(-c5cccc(C#N)c5)c4)nc(-c4cncc(C(F)F)c4)nc3n21 [Example 62, 3-[5-[2-[[2-[5-(difluoromethyl)pyridin-3-yl]-8,8-dimethyl-7H-purino[8,9-b][1,3]oxazol-4-yl]amino]ethyl]-2-hydroxyphenyl]benzonitrile]
[1]
  Static (vs veh): fold increase of platelet production efficiency (PLT/MK): 5.1
[2]
  IC50: 1.9 nM

## CC1(C)COc2nc3c(NCCc4ccc(O)c(-c5cccc(C#N)c5)c4)nc(-c4ccc5nccn5c4)nc3n21 [Example 63]
[1]
  Static (vs veh): fold increase of platelet production efficiency (PLT/MK): 4.8
[2]
  IC50: 17 nM

## CC1(C)COc2nc3c(NCCc4ccc(O)c(-c5cccc(C#N)c5)c4)nc(-c4ccnc(F)c4)nc3n21 [Example 64]
[1]
  Static (vs veh): fold increase of platelet production efficiency (PLT/MK): 3.7
[2]
  IC50: 5.7 nM

## CC1(C)COc2nc3c(NCCc4ccc(O)c(-c5cc(C#N)ccc5F)c4)nc(-c4cncc(C#N)c4)nc3n21 [Example 65]
[1]
  Static (vs veh): fold increase of platelet production efficiency (PLT/MK): 3.3
[2]
  IC50: 3.9 nM

## Cc1cncc(-c2nc(NCCc3ccc(O)c(-c4cc(C#N)ccc4F)c3)c3nc4n(c3n2)C(C)(C)CO4)c1 [Example 66]
[1]
  Static (vs veh): fold increase of platelet production efficiency (PLT/MK): 4.8
[2]
  IC50: 8.1 nM

## CC1(C)COc2nc3c(NCCc4ccc(O)c(-c5cccc(C#N)c5F)c4)nc(-c4cncc(C#N)c4)nc3n21 [Example 67]
[1]
  Static (vs veh): fold increase of platelet production efficiency (PLT/MK): 2.9
[2]
  IC50: 2.4 nM

## Cc1cncc(-c2nc(NCCc3ccc(O)c(-c4cccc(C#N)c4F)c3)c3nc4n(c3n2)C(C)(C)CO4)c1 [Example 68]
[1]
  Static (vs veh): fold increase of platelet production efficiency (PLT/MK): 3.2
[2]
  IC50: 2.8 nM

## CC1(C)COc2nc3c(NCCc4ccc(O)c(-c5cc(F)cc(C#N)c5)c4)nc(-c4cncc(C#N)c4)nc3n21 [Example 69]
[1]
  Static (vs veh): fold increase of platelet production efficiency (PLT/MK): 4.7
[2]
  IC50: 13 nM

## C[C@@H]1CSc2nc3c(NCCc4ccc(O)c(-c5cncc(F)c5)c4)nc(-c4cncc(F)c4)nc3n21 [Example 71]
[1]
  Static (vs veh): fold increase of platelet production efficiency (PLT/MK): 7.2
[2]
  IC50: 4.7 nM

## Cc1cncc(-c2cc(CCNc3nc(-c4cncc(F)c4)nc4c3nc3n4C(C)(C)CO3)ccc2O)c1 [Example 72]
[1]
  Static (vs veh): fold increase of platelet production efficiency (PLT/MK): 6.8
[2]
  IC50: 9.8 nM

## Cc1cncc(-c2cc(CCNc3nc(-c4cncc(F)c4)nc4c3nc3n4C(C)(C)CS3)ccc2O)c1 [Example 73]
[1]
  Static (vs veh): fold increase of platelet production efficiency (PLT/MK): 7.9
[2]
  IC50: 7.3 nM
